Common to all, as to design: concentration or dose not given beside the values
For assay [1], the system named is Human immunodeficiency virus 1. As to the kind of experiment: Binding affinity to HLT-tagged HIV-1 Rev measured after overnight incubation by chemiluminescence analysis relative to IN 118-128.
The target of assay [2] is Human immunodeficiency virus type 1 integrase (Human immunodeficiency virus 1) (UniProt Q7ZJM1). The assay is described as follows: Binding affinity to HIV-1 integrase measured after overnight incubation by chemiluminescence analysis relative to IN 118-128.
Assay [3] concerns Human immunodeficiency virus 1. The assay is described as follows: Binding affinity to HLT-tagged HIV-1 Rev measured after overnight incubation by chemiluminescence analysis relative to IN 174-188.
Assay [4] has as its target Human immunodeficiency virus type 1 integrase (Human immunodeficiency virus 1) (UniProt Q7ZJM1). As to the kind of experiment: Binding affinity to HIV-1 integrase measured after overnight incubation by chemiluminescence analysis relative to IN 174-188.

Square brackets hold non-standard residues; d marks the D form. Peptide text beside a SMILES is read from it. NMeR = CN[C@@H](CCCNC(=N)N)C(=O)O; NMeF = CN[C@@H](Cc1ccccc1)C(=O)O; NMeI = CC[C@H](C)[C@H](NC)C(=O)O; NMeT = CN[C@H](C(=O)O)[C@@H](C)O; NMeK = CN[C@@H](CCCCN)C(=O)O; NMeM = CN[C@@H](CCSC)C(=O)O; NMeV = CN[C@H](C(=O)O)C(C)C; NMeA = CN[C@@H](C)C(=O)O

Human immunodeficiency virus type 1 integrase (Human immunodeficiency virus 1), sequence (Q7ZJM1 as listed by the source): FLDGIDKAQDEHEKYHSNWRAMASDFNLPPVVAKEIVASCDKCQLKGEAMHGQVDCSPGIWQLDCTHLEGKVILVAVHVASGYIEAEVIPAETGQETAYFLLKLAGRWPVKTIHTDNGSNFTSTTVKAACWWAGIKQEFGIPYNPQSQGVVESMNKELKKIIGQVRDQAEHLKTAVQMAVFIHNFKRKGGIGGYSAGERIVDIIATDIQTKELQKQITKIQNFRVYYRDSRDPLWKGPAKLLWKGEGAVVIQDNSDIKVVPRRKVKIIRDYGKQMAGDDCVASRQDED

Take `CC(C)[C@@H](NC(=O)[C@@H](NC(=O)[C@@H](NC(=O)[C@H](CO)NC(=O)[C@@H](NC(=O)[C@H](Cc1ccccc1)NC(=O)[C@H](CC(N)=O)NC(=O)[C@H](CO)NC(=O)CN)[C@@H](C)O)[C@@H](C)O)[C@@H](C)O)C(=O)N[C@@H](CCCCN)C(=O)N[C@@H](C)C(=O)O`: the values for the Activity in assay [1] and in assay [2] were 107% and 97%, respectively.
Turning to `CC(C)[C@H](NC(=O)[C@@H](NC(=O)[C@@H](NC(=O)[C@H](CO)NC(=O)[C@@H](NC(=O)[C@H](Cc1ccccc1)NC(=O)[C@H](CC(N)=O)NC(=O)[C@H](CO)NC(=O)CN)[C@@H](C)O)[C@@H](C)O)[C@@H](C)O)C(=O)N[C@@H](CCCCN)C(=O)N[C@H](C)C(=O)O`, the Activity in assay [1] came out at 137%; in assay [2] it was 136%.
Regarding `CC(C)[C@H](NC(=O)[C@@H](NC(=O)[C@@H](NC(=O)[C@H](CO)NC(=O)[C@@H](NC(=O)[C@H](Cc1ccccc1)NC(=O)[C@H](CC(N)=O)NC(=O)[C@H](CO)NC(=O)CN)[C@@H](C)O)[C@@H](C)O)[C@@H](C)O)C(=O)N[C@H](CCCCN)C(=O)N[C@@H](C)C(=O)O`, the Activity turned out to be 53% in assay [1] and 109% in assay [2].
In the case of `CC[C@H](C)[C@H](NC(=O)[C@H](Cc1ccccc1)NC(=O)[C@@H](NC(=O)[C@H](C)NC(=O)[C@H](CCSC)NC(=O)[C@H](CCC(N)=O)NC(=O)[C@@H](NC(=O)[C@H](C)NC(=O)[C@@H](N)[C@@H](C)O)C(C)C)C(C)C)C(=O)N[C@@H](Cc1cnc[nH]1)C(=O)N[C@@H](CC(N)=O)C(=O)N[C@@H](Cc1ccccc1)C(=O)N[C@@H](CCCCN)C(=O)N[C@@H](CCCNC(=N)N)C(=O)N[C@@H](C)C(=O)O` (H-TAVQMAVFIHNFKRA-OH), the figures for the Activity in assay [3] and in assay [4] were 209% and 109%, respectively.
With `CC[C@H](C)[C@H](NC(=O)[C@H](Cc1ccccc1)NC(=O)[C@@H](NC(=O)[C@H](C)NC(=O)[C@H](CCSC)NC(=O)[C@H](CCC(N)=O)NC(=O)[C@@H](NC(=O)[C@H](C)NC(=O)[C@@H](N)[C@@H](C)O)C(C)C)C(C)C)C(=O)N[C@@H](Cc1cnc[nH]1)C(=O)N[C@@H](CC(N)=O)C(=O)N[C@@H](Cc1ccccc1)C(=O)N[C@@H](CCCCN)C(=O)N[C@@H](CCCNC(=N)N)C(=O)N(C)[C@@H](CCCCN)C(=O)O` (H-TAVQMAVFIHNFKR[NMeK]-OH), the values for the Activity in assay [3] and in assay [4] were 201% and 117%, respectively.
The matching figures for `CC[C@H](C)[C@H](NC(=O)[C@H](Cc1ccccc1)NC(=O)[C@@H](NC(=O)[C@H](C)NC(=O)[C@H](CCSC)NC(=O)[C@H](CCC(N)=O)NC(=O)[C@@H](NC(=O)[C@H](C)NC(=O)[C@@H](N)[C@@H](C)O)C(C)C)C(C)C)C(=O)N[C@@H](Cc1cnc[nH]1)C(=O)N[C@@H](CC(N)=O)C(=O)N[C@@H](Cc1ccccc1)C(=O)N[C@@H](CCCCN)C(=O)N(C)[C@@H](CCCNC(=N)N)C(=O)N[C@@H](CCCCN)C(=O)O` (H-TAVQMAVFIHNFK[NMeR]K-OH): 75% and 123%.
In the same order, the values of `CC[C@H](C)[C@H](NC(=O)[C@H](Cc1ccccc1)NC(=O)[C@@H](NC(=O)[C@H](C)NC(=O)[C@H](CCSC)NC(=O)[C@H](CCC(N)=O)NC(=O)[C@@H](NC(=O)[C@H](C)NC(=O)[C@@H](N)[C@@H](C)O)C(C)C)C(C)C)C(=O)N[C@@H](Cc1cnc[nH]1)C(=O)N[C@@H](CC(N)=O)C(=O)N[C@@H](Cc1ccccc1)C(=O)N(C)[C@@H](CCCCN)C(=O)N[C@@H](CCCNC(=N)N)C(=O)N[C@@H](CCCCN)C(=O)O` (H-TAVQMAVFIHNF[NMeK]RK-OH) are 70% and 130%.
Regarding `CC[C@H](C)[C@H](NC(=O)[C@H](Cc1ccccc1)NC(=O)[C@@H](NC(=O)[C@H](C)NC(=O)[C@H](CCSC)NC(=O)[C@H](CCC(N)=O)NC(=O)[C@@H](NC(=O)[C@H](C)NC(=O)[C@@H](N)[C@@H](C)O)C(C)C)C(C)C)C(=O)N[C@@H](Cc1cnc[nH]1)C(=O)N[C@@H](CC(N)=O)C(=O)N(C)[C@@H](Cc1ccccc1)C(=O)N[C@@H](CCCCN)C(=O)N[C@@H](CCCNC(=N)N)C(=O)N[C@@H](CCCCN)C(=O)O` (H-TAVQMAVFIHN[NMeF]KRK-OH), the Activity in assay [3] amounted to 50%; in assay [4], 122%.
With `CC[C@H](C)[C@@H](C(=O)N[C@@H](Cc1cnc[nH]1)C(=O)N[C@@H](CC(N)=O)C(=O)N[C@@H](Cc1ccccc1)C(=O)N[C@@H](CCCCN)C(=O)N[C@@H](CCCNC(=N)N)C(=O)N[C@@H](CCCCN)C(=O)O)N(C)C(=O)[C@H](Cc1ccccc1)NC(=O)[C@@H](NC(=O)[C@H](C)NC(=O)[C@H](CCSC)NC(=O)[C@H](CCC(N)=O)NC(=O)[C@@H](NC(=O)[C@H](C)NC(=O)[C@@H](N)[C@@H](C)O)C(C)C)C(C)C` (H-TAVQMAVF[NMeI]HNFKRK-OH), the Activity is 107% in assay [3] and 123% in assay [4].
With `CC[C@H](C)[C@H](NC(=O)[C@H](Cc1ccccc1)N(C)C(=O)[C@@H](NC(=O)[C@H](C)NC(=O)[C@H](CCSC)NC(=O)[C@H](CCC(N)=O)NC(=O)[C@@H](NC(=O)[C@H](C)NC(=O)[C@@H](N)[C@@H](C)O)C(C)C)C(C)C)C(=O)N[C@@H](Cc1cnc[nH]1)C(=O)N[C@@H](CC(N)=O)C(=O)N[C@@H](Cc1ccccc1)C(=O)N[C@@H](CCCCN)C(=O)N[C@@H](CCCNC(=N)N)C(=O)N[C@@H](CCCCN)C(=O)O` (H-TAVQMAV[NMeF]IHNFKRK-OH), the Activity was 152% in assay [3] and 141% in assay [4].
The matching figures for `CC[C@H](C)[C@H](NC(=O)[C@H](Cc1ccccc1)NC(=O)[C@H](C(C)C)N(C)C(=O)[C@H](C)NC(=O)[C@H](CCSC)NC(=O)[C@H](CCC(N)=O)NC(=O)[C@@H](NC(=O)[C@H](C)NC(=O)[C@@H](N)[C@@H](C)O)C(C)C)C(=O)N[C@@H](Cc1cnc[nH]1)C(=O)N[C@@H](CC(N)=O)C(=O)N[C@@H](Cc1ccccc1)C(=O)N[C@@H](CCCCN)C(=O)N[C@@H](CCCNC(=N)N)C(=O)N[C@@H](CCCCN)C(=O)O` (H-TAVQMA[NMeV]FIHNFKRK-OH): 55% and 67%.
On to `CC[C@H](C)[C@H](NC(=O)[C@H](Cc1ccccc1)NC(=O)[C@@H](NC(=O)[C@H](C)N(C)C(=O)[C@H](CCSC)NC(=O)[C@H](CCC(N)=O)NC(=O)[C@@H](NC(=O)[C@H](C)NC(=O)[C@@H](N)[C@@H](C)O)C(C)C)C(C)C)C(=O)N[C@@H](Cc1cnc[nH]1)C(=O)N[C@@H](CC(N)=O)C(=O)N[C@@H](Cc1ccccc1)C(=O)N[C@@H](CCCCN)C(=O)N[C@@H](CCCNC(=N)N)C(=O)N[C@@H](CCCCN)C(=O)O` (H-TAVQM[NMeA]VFIHNFKRK-OH), for which the Activity in assay [3] turned out to be 66%; in assay [4] it was 99%.
With `CC[C@H](C)[C@H](NC(=O)[C@H](Cc1ccccc1)NC(=O)[C@@H](NC(=O)[C@H](C)NC(=O)[C@H](CCSC)N(C)C(=O)[C@H](CCC(N)=O)NC(=O)[C@@H](NC(=O)[C@H](C)NC(=O)[C@@H](N)[C@@H](C)O)C(C)C)C(C)C)C(=O)N[C@@H](Cc1cnc[nH]1)C(=O)N[C@@H](CC(N)=O)C(=O)N[C@@H](Cc1ccccc1)C(=O)N[C@@H](CCCCN)C(=O)N[C@@H](CCCNC(=N)N)C(=O)N[C@@H](CCCCN)C(=O)O` (H-TAVQ[NMeM]AVFIHNFKRK-OH), the Activity in assay [3] turned out to be 134%; in assay [4], 103%.
As for `CC[C@H](C)[C@H](NC(=O)[C@H](Cc1ccccc1)NC(=O)[C@@H](NC(=O)[C@H](C)NC(=O)[C@H](CCSC)NC(=O)[C@H](CCC(N)=O)NC(=O)[C@H](C(C)C)N(C)C(=O)[C@H](C)NC(=O)[C@@H](N)[C@@H](C)O)C(C)C)C(=O)N[C@@H](Cc1cnc[nH]1)C(=O)N[C@@H](CC(N)=O)C(=O)N[C@@H](Cc1ccccc1)C(=O)N[C@@H](CCCCN)C(=O)N[C@@H](CCCNC(=N)N)C(=O)N[C@@H](CCCCN)C(=O)O` (H-TA[NMeV]QMAVFIHNFKRK-OH), the Activity is 110% in assay [3] and 118% in assay [4].
On to `CC[C@H](C)[C@H](NC(=O)[C@H](Cc1ccccc1)NC(=O)[C@@H](NC(=O)[C@H](C)NC(=O)[C@H](CCSC)NC(=O)[C@H](CCC(N)=O)NC(=O)[C@@H](NC(=O)[C@H](C)N(C)C(=O)[C@@H](N)[C@@H](C)O)C(C)C)C(C)C)C(=O)N[C@@H](Cc1cnc[nH]1)C(=O)N[C@@H](CC(N)=O)C(=O)N[C@@H](Cc1ccccc1)C(=O)N[C@@H](CCCCN)C(=O)N[C@@H](CCCNC(=N)N)C(=O)N[C@@H](CCCCN)C(=O)O` (H-T[NMeA]VQMAVFIHNFKRK-OH), for which the figures for the Activity in assay [3] and in assay [4] were 86% and 75%, respectively.
In the same order, the values of `CC[C@H](C)[C@H](NC(=O)[C@H](Cc1ccccc1)NC(=O)[C@@H](N)C(C)C)C(=O)N[C@@H](Cc1cnc[nH]1)C(=O)N[C@@H](CC(N)=O)C(=O)N[C@@H](Cc1ccccc1)C(=O)N[C@@H](CCCCN)C(=O)N[C@@H](CCCNC(=N)N)C(=O)N[C@@H](CCCCN)C(=O)O` (H-VFIHNFKRK-OH) are 86% and 132%.
Take `CC[C@H](C)[C@H](NC(=O)[C@H](Cc1ccccc1)NC(=O)[C@@H](NC(=O)[C@H](C)NC(=O)[C@H](CCSC)NC(=O)[C@H](CCC(N)=O)NC(=O)[C@@H](N)C(C)C)C(C)C)C(=O)N[C@@H](Cc1cnc[nH]1)C(=O)N[C@@H](CC(N)=O)C(=O)N[C@@H](Cc1ccccc1)C(=O)N[C@@H](CCCCN)C(=O)N[C@@H](CCCNC(=N)N)C(=O)N[C@@H](CCCCN)C(=O)O` (H-VQMAVFIHNFKRK-OH): the results for the Activity in assay [3] and in assay [4] were 104% and 133%, respectively.
With `CC[C@H](C)[C@H](NC(=O)[C@H](Cc1ccccc1)NC(=O)[C@@H](NC(=O)[C@H](C)NC(=O)[C@H](CCSC)NC(=O)[C@H](CCC(N)=O)NC(=O)[C@@H](NC(=O)[C@H](C)NC(=O)[C@@H](NC)[C@@H](C)O)C(C)C)C(C)C)C(=O)N[C@@H](Cc1cnc[nH]1)C(=O)N[C@@H](CC(N)=O)C(=O)N[C@@H](Cc1ccccc1)C(=O)N[C@@H](CCCCN)C(=O)N[C@@H](CCCNC(=N)N)C(=O)N[C@@H](CCCCN)C(=O)O` (H-[NMeT]AVQMAVFIHNFKRK-OH), the Activity amounted to 93% in assay [3] and 84% in assay [4].

The record behind these values is ChEMBL document CHEMBL3217454, “Structureactivity relationship studies using peptide arrays: the example of HIV-1 Revintegrase interaction” (Medchemcomm, 2013).
